{"source": "patent US20230390220A1", "about": "“MONOAMINE OXIDASE BLOCKADE THERAPY FOR TREATING CANCER THROUGH REGULATING ANTITUMOR T CELL IMMUNITY” (THE REGENTS OF THE UNIVERSITY OF CALIFORNIA, priority 2020, published 2023)", "key": {"[1]": {"tested_on": "B16-OVA melanoma", "assay": "Syngeneic B16-OVA melanoma tumor model, tumor growth", "format": "in vivo, mouse", "conditions": "for Tumor growth, B16-OVA melanoma prevention model: i.p., phenelzine 30 mg/kg/day, moclobimide 50 mg/kg/day, clorgyline 50 mg/kg/day", "protocol": "(§1) B16-OVA melanoma cells (1×10^6 per animal) or MC38 colon cancer cells (3×10^5 per animal) were subcutaneously (s.c.) injected into experimental mice to form solid tumors. In some experiments, mice received intraperitoneal (i.p.) injection of MAOIs (i.e., phenelzine, 30 mg/kg/day; moclobimide, 50 mg/kg/day; or clorgyline, 50 mg/kg/day) to block MAO-A activity. In some experiments, mice received i.p. injection of anti-mouse CD8α antibodies (200 μg/animal/bi-weekly) to deplete CD8 T cells; mice received i.p. injection of isotype antibodies were included as controls. In some experiments, mice received i.p. injection of anti-mouse PD-1 antibodies (300 μg/animal/bi-weekly) to block PD-1; mice received i.p. injection of isotype antibodies were included as controls.\n(§2) During an experiment, tumor growth was monitored twice per week by measuring tumor size using a Fisherbrand™ Traceable™ digital caliper (Thermo Fisher Scientific); tumor volumes were calculated by formula ½×L×W^2. At the end of an experiment, tumor-infiltrating immune cells were isolated for analysis using QPCR, flow cytometry, and/or scRNASeq. In some experiments, sera were also collected for serotonin measurement."}, "[2]": {"tested_on": "CD8 T cells", "assay": "In vitro mouse CD8 T cell activation with anti-CD3 (ELISA / flow cytometry)", "format": "cell-based", "conditions": "for CD8 T cell hyperactivation (expression of CD25, Granzyme B, IL-2, IFN-γ): B6 wildtype CD8 T cells, anti-CD3, Phe 10 μM, Moc 200 μM, Clo 20 μM; for IL-2 and IFN-γ production: Maoa-WT CD8 T cells, 4-day time course post anti-CD3, treatment 10 μM vs NT", "from_the_text": "The coating and biotinylated antibodies for the detection of mouse IFN-γ (coating antibody, cat #554424; biotinylated detection antibody, cat #554426) and IL-2 (coating antibody, cat #551216; biotinylated detection antibody, cat #554410) were purchased from BD Biosciences. The streptavidin-HRP conjugate (Cat #18410051) was purchased from Invitrogen. Mouse IFN-γ (Cat #575309) and IL-2 (Cat #575409) standards were purchased from BioLegend. The 3,3′,5,5′-Tetramethylbenzidine (TMB, cat #51200048) substrate was purchased from KPL."}, "[3]": {"tested_on": "tumor-infiltrating CD8 T cells", "conditions": "B16-OVA, day 17, phenelzine vs NT, FACS", "protocol": "as §1"}, "[4]": {"tested_on": "B16-OVA melanoma", "conditions": "Maoa-WT mice", "protocol": "as §1, §2\nHPLC was used to measure intratumoral and serum serotonin levels as previously described (47, 48). Briefly, tumors and sera were collected from experimental mice at indicated time points, and were snap-frozen using liquid nitrogen. Frozen samples were thawed and homogenized using methanol and acetonitrile by vortexing. Homogenized samples were centrifuged, and supernatants were collected to new tubes and evaporated under a stream of argon. Dried sample pellets were then reconstituted in HPLC running buffer and were ready for analysis. Serotonin concentration was quantified using a C 18 column by reverse phase HPLC (System Gold 166P detector, Beckman Coulter)"}, "[5]": {"tested_on": "Maoa-WT CD8 T cells", "conditions": "24-hour post anti-CD3 stimulation, phenelzine 10 μM vs NT, ELISA", "method": "Spleen and lymph node cells were harvested from Maoa-KO or Maoa-WT (B6 wildtype) mice and subjected to MACS using a Mouse CD8 T Cell Isolation Kit (Cat #120117044, Miltenyi Biotec) following the manufacturer's instructions. Purified mouse CD8 T cells were cultured in vitro in C10 medium, in a 24-well plate at 0.5×10^6 cells per ml medium per well, in the presence of plate-bound anti-mouse CD3ε (5 μg/ml) for up to 4 days. At indicated time points, cells were collected for flow cytometry analysis of surface marker expression and intracellular effector molecule production, and for QPCR analysis of mRNA expression; cell culture supernatants were collected for ELISA analysis of effector cytokine production. In experiments studying serotonin signaling, cells were cultured in C10 medium made of serotonin-depleted FBS that was pretreated overnight with charcoal-dextran (Cat #C6241, Sigma; 1 gram per 50 ml FBS). L-Ascorbic acid (Cat #A4403, Sigma; 100 μM) was added to C10 medium to stabilize T cell-produced or supplemented serotonin. […] In some experiments, cells were supplemented with exogenous serotonin (SER, 10 μM) to stimulate serotonin signaling. In some experiments, cells were treated with serotonin receptor antagonist asenapine (ASE, 10 μM) to block serotonin receptor signaling. […] The absorbance at 450 nm was measured using an Infinite M1000 microplate reader (Tecan)."}, "[6]": {"tested_on": "MC38 colon cancer", "protocol": "as §1, §2"}, "[7]": {"tested_on": "A375-A2-ESO-FG human melanoma cells", "protocol": "The A375-A2-ESO-FG human melanoma cells (10×10^6 cells per animal) were s.c. injected into NSG mice to form solid tumors. In some experiments, mice received phenelzine treatment through i.p. injection (30 mg/kg/day). In some experiments, mice received adoptive transfer of ESO-T cells through r.o. injection (4×10^6 cells per recipient mouse). Prior to ESO-T cell adoptive transfer, recipient mice were preconditioned with total body irradiation (100 rads). During an experiment, tumor growth was monitored twice per week by measuring tumor size using a Fisherbrand™ Traceable™ digital caliper; tumor volumes were calculated by formula ½×L×W^2."}, "[8]": {"tested_on": "5-HTRs on CD8 T cells", "assay": "Western blot of 5-HTR (MAPK) and TCR signaling in CD8 T cells", "format": "cell-based, mouse", "conditions": "anti-CD3 2 days, asenapine 10 μM, restimulated 20 minutes", "method": "CD8 T cells purified from Maoa-WT and Maoa-KO mice were cultured in vitro in a 24-well plate at 0.5×10^6 cells per well for 2 days, in the presence of plate-bound anti-mouse CD3ε (5 μg/ml), with or without asenapine treatment (10 μM). Cells were then rested on ice for 2 hours and restimulated with plate-bound anti-mouse CD3ε (5 μg/ml) for 20 minutes. Total protein was extracted using a lysis buffer containing 20 mM HEPES (pH 7.6), 150 mM NaCl, 1 mM EDTA, 1% TritonX-100, and protease/phosphatase inhibitor cocktail (Cat #5872S, Cell Signaling). Nuclear protein was extracted using a Nuclear Protein Extraction Kit (Cat #P178833, Thermo Fisher Scientific). Protein concentration was measured a BCA Assay Kit (Cat #23228 and Cat #1859078, Thermo Fisher Scientific). Equal amounts of protein were resolved on a 10% SDS-PAGE gel and then transferred to a PVDF membrane by electrophoresis. MAO-A antibody was purchased from Abcam (Cat #ab126751, Clone EPR7101). […] Signals were visualized with autoradiography using an ECL system (Cat #RPN2232, Thermo Fisher Scientific). The data were analyzed using an Image Lab software (Bio-Rad)."}, "[9]": {"conditions": "B6 wildtype mice, combination study with anti-PD-1 (Iso, Phe+Iso, αPD-1, Phe+αPD-1)"}}, "data": [{"smiles": "O=C(NCCN1CCOCC1)c1ccc(Cl)cc1", "note": "[mocolobemide, moclobemide]", "values": [{"measurement": "Tumor growth, B16-OVA melanoma prevention model", "setting": "[1]; B6 wildtype mice", "value": "dramatically suppressed tumor growth"}, {"measurement": "CD8 T cell hyperactivation (expression of CD25, Granzyme B, IL-2, IFN-γ)", "setting": "[2]", "value": "efficiently induced CD8 T cell hyperactivation"}]}, {"smiles": "NNCCc1ccccc1", "note": "[phenelzine]", "values": [{"measurement": "B16-OVA tumor growth", "setting": "[1]; [9]", "value": "significantly suppressed tumor growth at a level comparable to the anti-PD-1 treatment"}, {"measurement": "Tumor growth, B16-OVA melanoma prevention model", "setting": "[1]; B6 wildtype mice", "value": "dramatically suppressed tumor growth"}, {"measurement": "Tumor progression, pre-established B16-OVA melanoma solid tumors", "setting": "[1]; B6 wildtype mice, phenelzine vs NT", "value": "effectively suppressed tumor progression"}, {"measurement": "B16-OVA tumor growth in immunodeficient NSG mice", "setting": "[1]; NSG mice, phenelzine vs NT", "value": "did not suppress the growth"}, {"measurement": "Tumor suppression with CD8 T cells depleted", "setting": "[1]; tumor-bearing B6 wildtype mice, phenelzine + anti-CD8", "value": "no tumor suppression was observed"}, {"measurement": "Expression of exhaustion markers (PD-1) on tumor-infiltrating CD8 T cells", "setting": "[3]", "value": "reduced expression of exhaustion markers"}, {"measurement": "Production of effector molecules (IFN-γ and Granzyme B) by tumor-infiltrating CD8 T cells", "setting": "[3]", "value": "enhanced production of effector molecules"}, {"measurement": "Phenelzine treatment-induced accumulation of serotonin in the tumor after depletion of CD8 T cells", "setting": "[4]; anti-CD8 antibody depletion, day 14, HPLC", "value": "largely abolished"}, {"measurement": "Serum serotonin levels", "setting": "[4]; day 14, with or without phenelzine and anti-CD8, HPLC", "value": "no significant changes in serotonin levels in serum"}, {"measurement": "Intratumoral serotonin levels", "setting": "[4]; day 14 post tumor challenge, phenelzine vs NT, HPLC", "value": "increased levels of serotonin"}, {"measurement": "Serotonin levels in CD8 T cell cultures", "setting": "[5]", "value": "recapitulated the serotonin overproduction phenotype of Maoa-KO CD8 T cells"}, {"measurement": "MC38 tumor growth", "setting": "[6]; [9]", "value": "completely suppressed tumor growth as effectively as the anti-PD-1 treatment"}, {"measurement": "MC38 tumor growth in immunodeficient NSG mice", "setting": "[6]; NSG mice, phenelzine vs NT", "value": "did not suppress the growth"}, {"measurement": "A375-A2-ESO-FG tumor growth without ESO-T cell adoptive transfer", "setting": "[7]; NSG mice without ESO-T cells, phenelzine vs NT", "value": "no tumor suppression was observed"}, {"measurement": "A375-A2-ESO-FG tumor growth with ESO-T cell adoptive transfer", "setting": "[7]; NSG mice, ESO-T cells, phenelzine i.p. 30 mg/kg/day vs NT", "value": "effectively suppressed tumor growth"}, {"measurement": "CD8 T cell hyperactivation (expression of CD25, Granzyme B, IL-2, IFN-γ)", "setting": "[2]", "value": "efficiently induced CD8 T cell hyperactivation"}, {"measurement": "IL-2 and IFN-γ production", "setting": "[2]; ELISA", "value": "increased production of the effector cytokines IL-2 and IFN-γ"}]}, {"smiles": "NCCc1c[nH]c2ccc(O)cc12", "note": "[serotonin]", "values": [{"measurement": "IL-2 and IFN-γ production", "setting": "[2]; ELISA", "value": "T cell hyperactivation and elevated production of IL-2 and IFN-γ"}]}, {"smiles": "CN1CC2c3ccccc3Oc3ccc(Cl)cc3C2C1", "note": "(stereo not drawn) [asenapine]", "values": [{"measurement": "IL-2 and IFN-γ production difference between Maoa-WT and Maoa-KO CD8 T cells", "setting": "[2]; day 2 post anti-CD3 stimulation, asenapine 10 μM, ELISA", "value": "eliminated the cytokine production difference between Maoa-WT and Maoa-KO CD8 T cells"}, {"measurement": "Enhancement of MAPK signaling (ERK phosphorylation) and TCR downstream signaling (NFAT, NF-κB, c-Jun) in Maoa-KO T cells", "setting": "[8]", "value": "largely abrogated"}]}, {"smiles": "C#CCN(C)CCCOc1ccc(Cl)cc1Cl", "note": "[clorgyline]", "values": [{"measurement": "Tumor growth, B16-OVA melanoma prevention model", "setting": "[1]; B6 wildtype mice", "value": "dramatically suppressed tumor growth"}, {"measurement": "CD8 T cell hyperactivation (expression of CD25, Granzyme B, IL-2, IFN-γ)", "setting": "[2]", "value": "efficiently induced CD8 T cell hyperactivation"}]}]}
